As usually defined, the half-life is the time in which the quantity being followed falls by half. Usually IC50 stands for the point on the concentration scale where inhibition reaches its midpoint. In general, bioavailability refers to the share of a dose that reaches the circulation, judged against a reference dose that is usually intravenous. A high value points to much systemic uptake.

Data on 19 molecules can be found in ChEMBL document CHEMBL1152879, “Discovery of GlyT1 inhibitors with improved pharmacokinetic properties” (Bioorg Med Chem Lett, 2009).

Series [1] is described as follows: Clearance in dog at 0.25 mg/kg, iv by cassette dosing. As to conditions: in vivo. The class given is ADME, organism-based, Canis lupus familiaris. Also on record: dose 0.25 mg/kg, route intravenous.
The nature of series [2]: Half life in dog at 0.25 mg/kg, iv by cassette dosing. More on the design: dose 0.25 mg/kg, route intravenous. Conditions: in vivo. The class given is ADME, organism-based, Canis lupus familiaris.
The target in series [3] is T1, Sodium- and chloride-dependent glycine transporter 1 (Homo sapiens, UniProt P48067).
T1 sequence (P48067 whole entry): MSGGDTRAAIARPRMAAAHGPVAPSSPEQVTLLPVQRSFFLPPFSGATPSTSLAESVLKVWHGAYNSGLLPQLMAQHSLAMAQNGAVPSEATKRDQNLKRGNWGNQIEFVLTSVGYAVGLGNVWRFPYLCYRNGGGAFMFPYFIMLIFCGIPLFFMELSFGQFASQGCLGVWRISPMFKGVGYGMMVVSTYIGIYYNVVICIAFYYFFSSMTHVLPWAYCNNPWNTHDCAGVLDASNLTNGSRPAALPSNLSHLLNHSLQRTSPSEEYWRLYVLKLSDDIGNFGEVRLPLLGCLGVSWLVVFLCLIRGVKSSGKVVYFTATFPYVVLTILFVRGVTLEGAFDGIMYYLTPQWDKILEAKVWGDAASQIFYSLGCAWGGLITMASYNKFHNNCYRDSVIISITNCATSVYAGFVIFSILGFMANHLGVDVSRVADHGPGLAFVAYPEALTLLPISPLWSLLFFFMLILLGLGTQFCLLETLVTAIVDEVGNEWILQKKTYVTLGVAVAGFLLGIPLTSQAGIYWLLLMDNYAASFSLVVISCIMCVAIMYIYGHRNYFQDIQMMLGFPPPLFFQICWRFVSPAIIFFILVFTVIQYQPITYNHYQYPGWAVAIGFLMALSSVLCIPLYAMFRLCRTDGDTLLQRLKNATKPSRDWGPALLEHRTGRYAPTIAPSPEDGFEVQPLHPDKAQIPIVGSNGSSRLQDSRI
In words: (§1) Inhibition of Glyt1.

For series [4], the species on record is Homo sapiens. In words: Activity of human P-glycoprotein.
A short description of series [5]: Half life in dog at 0.5 mg/kg, iv and 1 mg/kg, po. The class given is ADME, organism-based, Canis lupus familiaris. As to conditions: in vivo.
Series [6] in a line: Oral bioavailability in dog at 1 mg/kg. The class given is ADME, organism-based, Canis lupus familiaris. Conditions: in vivo.
Series [7] is described as follows: Clearance in dog at 0.5 mg/kg, iv and 1 mg/kg, po. The class given is ADME, organism-based, Canis lupus familiaris. As to conditions: in vivo.
Series [8] concerns MDR1 (human). The series is described as follows: Passive permeability from apical to basolateral side of pig LLC-PK1 cells expressing human MDR1. The class given is ADME, cell-based, Sus scrofa. Conditions: read-out: permeability.
Series [9] can be described thus: Volume of distribution at steady state in dog at 0.5 mg/kg, iv and 1 mg/kg, po. The class given is ADME, organism-based, Canis lupus familiaris. Conditions: in vivo, read-out: Vdss.
For series [10], the target named is T2, Sodium- and chloride-dependent glycine transporter 1 (Homo sapiens) (UniProt P48067).
T2 sequence (whole entry): T1 sequence (P48067 whole entry)
Described as §1.

In series [11] the test system is Rattus norvegicus. The series is described as follows: In vivo plasma occupancy by displacement of [35S]ACPPB from rat GlyT1 in po dosed rat brain. The class given is functional. Background: In a radioligand displacement assay an active substance lowers the binding of a labelled ligand.
The species entered for series [12] is Rattus norvegicus. The series is described as follows: Activity of rat P-glycoprotein.
The target in series [13] is T3, Sodium- and chloride-dependent taurine transporter (Homo sapiens, UniProt P31641).
T3 sequence (P31641 whole entry): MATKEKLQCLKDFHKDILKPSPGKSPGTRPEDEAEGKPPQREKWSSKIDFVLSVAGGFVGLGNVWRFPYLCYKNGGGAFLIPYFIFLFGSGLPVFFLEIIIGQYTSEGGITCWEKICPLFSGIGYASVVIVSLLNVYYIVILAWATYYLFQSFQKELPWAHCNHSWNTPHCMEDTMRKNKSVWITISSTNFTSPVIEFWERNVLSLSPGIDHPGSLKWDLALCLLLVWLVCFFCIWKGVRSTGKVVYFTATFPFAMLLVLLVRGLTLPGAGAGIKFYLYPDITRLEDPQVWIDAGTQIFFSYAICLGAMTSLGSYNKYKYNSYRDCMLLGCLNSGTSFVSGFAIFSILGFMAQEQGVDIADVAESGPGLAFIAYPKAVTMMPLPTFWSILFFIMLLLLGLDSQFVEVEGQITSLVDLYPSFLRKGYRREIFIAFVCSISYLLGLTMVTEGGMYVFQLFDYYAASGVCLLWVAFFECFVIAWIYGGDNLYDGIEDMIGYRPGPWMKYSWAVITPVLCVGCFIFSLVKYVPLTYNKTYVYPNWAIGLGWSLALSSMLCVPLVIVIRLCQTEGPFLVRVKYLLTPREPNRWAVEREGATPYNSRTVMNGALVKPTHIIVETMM
In words: Inhibition of taurine transporter.

The target of series [14] is T4, Sodium- and chloride-dependent glycine transporter 2 (Homo sapiens, UniProt Q9Y345).
T4 sequence (Q9Y345 whole entry): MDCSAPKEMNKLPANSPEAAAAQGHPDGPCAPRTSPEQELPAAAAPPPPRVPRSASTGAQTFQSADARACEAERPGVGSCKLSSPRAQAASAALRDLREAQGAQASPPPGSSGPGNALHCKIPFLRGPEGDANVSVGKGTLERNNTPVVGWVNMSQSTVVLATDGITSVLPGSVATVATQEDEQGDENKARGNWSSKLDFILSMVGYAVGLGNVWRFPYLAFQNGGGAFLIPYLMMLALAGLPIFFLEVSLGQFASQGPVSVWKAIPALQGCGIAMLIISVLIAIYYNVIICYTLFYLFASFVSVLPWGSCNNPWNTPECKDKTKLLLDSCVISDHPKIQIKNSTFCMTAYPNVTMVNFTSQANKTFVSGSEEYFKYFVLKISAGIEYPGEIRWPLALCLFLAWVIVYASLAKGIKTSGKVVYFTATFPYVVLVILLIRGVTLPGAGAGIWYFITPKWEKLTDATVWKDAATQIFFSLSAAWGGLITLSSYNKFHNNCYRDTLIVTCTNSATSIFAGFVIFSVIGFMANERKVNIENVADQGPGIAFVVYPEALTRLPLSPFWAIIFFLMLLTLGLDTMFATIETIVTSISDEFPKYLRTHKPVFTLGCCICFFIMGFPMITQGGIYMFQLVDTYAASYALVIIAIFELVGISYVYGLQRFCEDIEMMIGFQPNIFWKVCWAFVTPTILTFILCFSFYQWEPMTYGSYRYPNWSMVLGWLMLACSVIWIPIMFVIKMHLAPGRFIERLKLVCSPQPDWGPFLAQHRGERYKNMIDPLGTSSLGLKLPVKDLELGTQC
The series is described as follows: Inhibition of Glyt2.

Activity calls are given as the source filed them. The rule behind the calls is not given here.

With `O=C(NCC1(c2ccccn2)CCN(S(=O)(=O)CC(F)(F)F)CC1)c1ccc(Cl)cc1Cl`, the clearance in series [1] came out at 2.5 mL/min/kg. In [2], this molecule showed a half-life of 4.9 h. The molecule further had an IC50 in series [3] of 1070 nM.

Regarding `CCS(=O)(=O)N1CCC(c2ccccn2)([C@H](C)NC(=O)c2ccc(Cl)cc2Cl)CC1`, the result in [4] and in [12] was inactive. Also, in series [5], the half-life is 5 h. Further, the bioavailability in [6] worked out at 25%. Further, the figures for the clearance in series [1] and in series [7] were 3.6 mL/min/kg and 3.5 mL/min/kg, respectively. In [8], the Papp A→B amounted to 37 ×10⁻⁶ cm/s. Besides, the Vd in [9] is 1.37 L/kg. This molecule also gave an Activity in [10] of 11 nM. Besides, the Occ50 in series [11] is 150 nM.

As for `CCS(=O)(=O)N1CCC(CNC(=O)c2ccc(Cl)cc2Cl)(CC2CC2)CC1`, the outcome in [4] and in [12] was inactive. This molecule showed a half-life in series [5] of 11.8 h. The bioavailability in [6] was determined as 38%. Besides, the clearance in series [1] was found to be 0.84 mL/min/kg; in series [7], 2.3 mL/min/kg. Moreover, in series [9], the Vd was 2.1 L/kg. The molecule further registered an Occ50 in [11] of 260 nM.

Regarding `CS(=O)(=O)N1CCC(CNC(=O)c2ccc(Cl)cc2Cl)(c2ccccn2)CC1`, the values for the 50% inhibitory concentration (IC50) in series [13], in series [14] and in [3] were over 30000 nM, over 30000 nM and 300 nM, respectively. Further, the clearance in [1] turned out to be 1 mL/min/kg. In series [2], this molecule showed a half-life of 8.4 h.

In series [3], `CC(O)CS(=O)(=O)N1CCC(CNC(=O)c2ccc(Cl)cc2Cl)(c2ccccn2)CC1` (stereo unspecified) yielded an IC50 of 86 nM.

Consider `CCCCS(=O)(=O)N1CCC(CNC(=O)c2ccc(Cl)cc2Cl)(c2ccccn2)CC1`, for which it took 120 nM to reach half-maximal inhibition in series [3] (IC50).

Regarding `CCCS(=O)(=O)N1CCC(CNC(=O)c2ccc(Cl)cc2Cl)(c2ccccn2)CC1`, the half-inhibitory concentration (IC50) in series [13] and in series [14] was over 30000 nM in each case. In series [1], this molecule showed a clearance of 15 mL/min/kg. The same molecule gave a half-life in series [2] of 2.3 h.

With `CC(F)CS(=O)(=O)N1CCC(CNC(=O)c2ccc(Cl)cc2Cl)(c2ccccn2)CC1` (stereo unspecified), the concentration for half-maximal inhibition (IC50) in series [13] is over 30000 nM; in [14], over 30000 nM; in series [3] it was 9.7 nM.

As for `O=C(NCC1(c2ccccn2)CCN(S(=O)(=O)C2CC2)CC1)c1ccc(Cl)cc1Cl`, the IC50 is over 30000 nM in series [13], over 30000 nM in [14] and 200 nM in series [3]. In series [1], this molecule gave a clearance of 1.7 mL/min/kg. The half-life in series [2] was 7.6 h.

In [1], `CCCS(=O)(=O)N1CCC(CNC(=O)c2ccc(Cl)cc2Cl)(C2CCCCC2OC(C)=O)CC1` (stereo unspecified) displayed a clearance of over 15 mL/min/kg. In series [2], this molecule had a half-life of under 2 h. Besides, in series [3], it took 17.7 nM to reach half-maximal inhibition (IC50).

In the case of `CCCS(=O)(=O)N1CCC(CNC(=O)c2ccc(Cl)cc2Cl)(N2CCC2)CC1`, the clearance in series [1] was over 15 mL/min/kg. The same molecule registered a half-life in series [2] of under 2 h. Also, the midpoint of inhibition in series [3], the IC50, lay at 38.1 nM.

On to `CCCS(=O)(=O)N1CCC(CNC(=O)c2ccc(Cl)cc2Cl)(CC2CCCCO2)CC1` (stereo unspecified), for which the IC50 in series [13] is over 30000 nM; in [14] it was over 30000 nM; in series [3], 2.9 nM. Also, in series [1], the clearance is over 15 mL/min/kg. Further, the half-life in series [2] was under 2 h.

As for `CC(C)S(=O)(=O)N1CCC(CNC(=O)c2ccc(Cl)cc2Cl)(c2ccccn2)CC1`, the IC50 in series [3] turned out to be 220 nM.

For `CCCS(=O)(=O)N1CCC(CNC(=O)c2ccc(Cl)cc2Cl)(CC2CC2)CC1`, the values for the IC50 in series [13], in series [14] and in series [3] were over 30000 nM, over 30000 nM and 30 nM, respectively. This molecule registered a clearance in series [1] of over 15 mL/min/kg. In addition, the half-life in series [2] is under 2 h.

`CCS(=O)(=O)N1CCC(CNC(=O)c2ccc(Cl)cc2Cl)(c2ccccn2)CC1`: the IC50 was over 30000 nM in [13], over 30000 nM in series [14] and 57 nM in [3]. Besides, in [1], the clearance amounted to 1.4 mL/min/kg. The same molecule gave a half-life in series [2] of 8 h.

Turning to `CCCS(=O)(=O)N1CCC(CCOC)(CNC(=O)c2ccc(Cl)cc2Cl)CC1`, the results for the IC50 in [13], in series [14] and in [3] were over 30000 nM, over 30000 nM and 26.5 nM, respectively. For the same molecule, in [1], the clearance was over 15 mL/min/kg. The half-life in [2] was under 2 h.

On to `CCCS(=O)(=O)N1CCC(CNC(=O)c2ccc(Cl)cc2Cl)(C2CCCCC2O)CC1` (stereo unspecified), for which the IC50 in series [13] was over 30000 nM; in series [14] it was over 30000 nM; in series [3], 2.8 nM. The molecule also yielded a clearance in series [1] of over 15 mL/min/kg. This molecule also gave a half-life in series [2] of under 2 h.

In turn, `O=C(NCC1(c2ccccn2)CCN(S(=O)(=O)C(F)(F)F)CC1)c1ccc(Cl)cc1Cl` yielded a half-maximal inhibitory concentration (IC50) in series [3] of over 5000 nM.

`CN(C)S(=O)(=O)N1CCC(CNC(=O)c2ccc(Cl)cc2Cl)(c2ccccn2)CC1` returned a clearance in series [1] of 11.8 mL/min/kg. The molecule also had a half-life in series [2] of 1.9 h. The IC50 in series [3] stood at 77 nM.
